Data from US20140378408A1, “NUCLEOSIDE 5'-PHOSPHOROTHIOATE ANALOGUES AND USES THEREOF” (BAR-ILAN UNIVERSITY, an Israeli University, priority 2012, published 2014).
Where two headings read alike, the source gives them in different places.

What was measured:
[1] = Affinity to Zn^2+ ions (log K); format: physicochemical
[2] = tested on: PC12 cells; experiment: Stability of nucleotides in PC12 cells
[3] = tested on: primary neurons; experiment: Protection of primary neuron culture against Aβ42 insult (trypan blue count); format: cell-based; conditions: Primary neuron
Protocol: Primary neuron cells were cultured in 96 wells plate (95×10^4 per well). After 24 h the cells were treated with 50 μM Aβ42 and various concentrations of APCPP-γ-S (0.04-25 μM) for 48 h. Cell viability was measured by dyeing the cells with trypan blue and counts of the vital cells. The results shown are the mean±S.D of three independent experiments in triplicate (*P<0.05, vs. Aβ42 treatment).
Primary neurons cells were cultured in 96 wells plate (95×10^4 per well). […] Cell viability was measured by dyeing the cells with trypan blue and counts the vital cells. The results shown are the mean±S.D of three independent experiments in triplicate (*P<0.05, **P<0.01 vs. Aβ42 treatment).
In this study, the neuroprotective activity of APCPP-γ-S in neuronal cells exposed to toxic Aβ42 was evaluated. At first we measured the number of the viable neuronal cells after treatment with Aβ42 (5-50 μM) (FIG. 11). At 50 μM Aβ42, 50% of the neuronal culture remained vital. Next, we measured the protective effect of APCPP-γ-S: primary neurons were treated with APCPP-γ-S (0.04-25 μM) and 50 μM Aβ42 for 48 h.

[4] = biological target: T1, Aβ40-Zn^2+ aggregates (Homo sapiens, UniProt P05067); experiment: TEM, size reduction of Aβ40-Zn^2+ aggregates; conditions: 6 eq, 7 h; aggregates 100 nm to 2.5 μm before
T1 construct: purchased GL-Biochem (Shanghai)
Protocol: TEM sample was prepared from 200 μM Aβ-M^2+ 1:1 solution (pH 7.4 or 6.6 for Aβ40-Zn^2+ or Aβ40-Cu^2+, respectively) incubated in a rotary shaker for 9 days at RT. A cloudy mixture with massive sediments was obtained. TEM samples were prepared by diluting the stock solutions with PBS to a concentration of 25 μM with or without APCPP-γ-S. In this way four samples were obtained: (i) 25 μM Aβ40-Cu^2+; (ii) 25 μM Aβ40-Cu^2+ containing 150 μM APCPP-γ-S; (iii) 25 μM Aβ40-Zn^2+; and (iv) 25 μM Aβ40-Zn^2+ containing 150 μm APCPP-γ-S. The mixtures were incubated in a rotary shaker for 7 h and after vortexing, a sample was transferred to a gold grid, for Aβ40-Cu^2+, or a copper grid for Aβ40-Zn^2+. The wet grid was left to dry at RT overnight.
To validate the DLS data indicating the efficiency of APCPP-γ-S, we monitored the dissolution of Aβ40-M^2+ aggregates in the presence of APCPP-γ-S by TEM. Aβ40-Cu^2+ and Aβ40-Zn^2+ 1:1 complexes were incubated for 9 days at RT, resulting in a significant sediment. Aβ40-Cu^2+ aggregates of 2.5 μm in diameter (FIG. 6A) and Aβ40-Zn^2+ aggregates of different sizes from 100 nm to 2.5 μm (FIG. 6C) were observed by TEM measurements. APCPP-γ-S (6 eq) was then added and the mixture was incubated for 7 h.

[5] = tested on: matrix vesicles (MVs); experiment: CPPD formation in MVs by FTIR analysis; design: species or system human; conditions: MV+ATP+analogue
[6] = tested on: cartilage pieces; experiment: NTMP hydrolysis in cartilage pieces; design: species or system human; conditions: 0.1 mM, NTMP 0.1 mM, OD 405 nm
Excerpt: (§1) Increased chondrocyte PPi production, and PPi-generating NPP1 activity are linked with CPPD crystal deposition disease, common in aging and osteoarthritic cartilage. […] Its hydrolysis by endogenous enzyme (NPP1) from matrix vesicles (MVs), human chondrocytes or cartilage pieces results in elevated OD at 405 nm.
In order to test the ability of the NPP1 inhibitor to inhibit NTMP hydrolysis in cartilage pieces, 12 pieces of cartilage of a uniform diameter were weighed and placed in wells of a 96-well plate overnight in DMEM w/o phenol red with penicillin-streptomycin-glutamine (PSG). The pieces of cartilage were incubated with 0.1 mM NTMP in TES, pH 7.37, in the presence or absence of 0.1 mM of the NPP1 inhibitor for 0, 15′, 30′, 1, 2, 4, 6, 8 hours at 37° C. At each time point 200 μl were removed from each well and the reaction was read at 405 nm.

[7] = biological target: T2, NPP1 from matrix vesicles (MVs) (Homo sapiens, UniProt P22413); experiment: NTMP hydrolysis in matrix vesicles; format: biochemical; conditions: 0.1 mM, NTMP 0.1 mM, OD 405 nm
T2 construct: Its hydrolysis by endogenous enzyme (NPP1) from matrix vesicles (MVs); from tissue; host or cells: matrix vesicles (MVs)
Protocol: as §1
In order to test the ability of the NPP1 inhibitor APPCCl2P-α-S (isomer A) to inhibit NTMP hydrolysis in MVs, MVs at 2.6 mg/ml (final concentration) were incubated with 0.1 mM NTMP in 2-[(2-Hydroxy-1,1-bis(hydroxymethyl)ethyl)amino]ethanesulfonic acid (TES; Sigma catalog number T1375), pH 7.37, in the presence or absence of 0.1 mM of said NPP1 inhibitor for 0, 15′, 30′, 1, 2, 4, 8 hours at 37° C. At each time point the reaction was read at 405 nm.

[8] = tested on: human chondrocyte cells; experiment: Hydrolysis of extracellular ATP in the presence of human chondrocyte culture; format: cell-based; conditions: 100 μM each, 8 h, ATP alone 56%, without cells 18%
Protocol: In this study, the metabolic hydrolysis of ATP was evaluated. […] Following incubation, the samples were collected and heated at 80° C. for 15 min and extracted with chloroform, applied onto an anion exchange cartridge, and freeze-dried. The resulting residue was analyzed by HPLC.

[9] = tested on: chondrocytes; experiment: Pyrophosphate formed by ATP hydrolysis in the presence of chondrocytes (fluorogenic sensor); format: cell-based, human; conditions: 8 h, ATP alone 0.46 μM, without chondrocytes 0.26 μM

T2 sequence (P22413 whole entry): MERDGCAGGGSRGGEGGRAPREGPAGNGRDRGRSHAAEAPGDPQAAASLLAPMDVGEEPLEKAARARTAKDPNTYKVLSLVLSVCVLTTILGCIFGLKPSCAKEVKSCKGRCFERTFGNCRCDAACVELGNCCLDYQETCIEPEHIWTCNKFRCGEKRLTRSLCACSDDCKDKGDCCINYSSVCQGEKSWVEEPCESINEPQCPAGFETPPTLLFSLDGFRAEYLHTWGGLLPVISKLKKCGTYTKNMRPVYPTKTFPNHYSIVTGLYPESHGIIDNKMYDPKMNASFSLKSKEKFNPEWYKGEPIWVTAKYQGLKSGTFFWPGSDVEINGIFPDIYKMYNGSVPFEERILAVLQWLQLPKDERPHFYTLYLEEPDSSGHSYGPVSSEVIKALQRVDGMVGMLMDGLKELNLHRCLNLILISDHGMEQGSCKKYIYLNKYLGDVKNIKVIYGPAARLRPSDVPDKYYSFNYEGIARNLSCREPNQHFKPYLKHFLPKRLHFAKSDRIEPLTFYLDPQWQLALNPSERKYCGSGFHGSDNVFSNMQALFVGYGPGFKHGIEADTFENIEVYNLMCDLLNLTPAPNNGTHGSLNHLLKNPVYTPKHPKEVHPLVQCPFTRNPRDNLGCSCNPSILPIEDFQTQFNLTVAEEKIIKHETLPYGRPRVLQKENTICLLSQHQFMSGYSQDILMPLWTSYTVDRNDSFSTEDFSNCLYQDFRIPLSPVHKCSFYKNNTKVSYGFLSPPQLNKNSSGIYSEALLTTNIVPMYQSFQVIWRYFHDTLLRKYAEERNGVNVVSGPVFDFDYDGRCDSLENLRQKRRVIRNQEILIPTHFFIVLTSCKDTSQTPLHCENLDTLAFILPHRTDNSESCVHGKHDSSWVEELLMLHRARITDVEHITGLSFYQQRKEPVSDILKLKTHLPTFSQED
T1 sequence (P05067 672-711 limits assumed): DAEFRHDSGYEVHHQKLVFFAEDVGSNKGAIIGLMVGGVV

Nc1ncnc2c1ncn2[C@@H]1O[C@H](COP(O)(=S)OP(=O)(O)C(Cl)(Cl)P(=O)(O)O)[C@@H](O)[C@H]1O (single isomer, unassigned) [APPCCl2P-α-S, adenosine 5′-[Pα-thio]-β,γ-(dichloromethylene)triphosphate]
log K (Zn^2+) [1]: 6.5
times higher affinity to Zn^2+ ions as compared to ATP [1]: 50

Nc1ncnc2c1ncn2[C@@H]1O[C@H](COP(=O)(O)OP(O)(O)=S)[C@@H](O)[C@H]1O [ADP-β-S, adenosine 5′-[β-thio]diphosphate, reference compound]
fold more stable in PC12 cells than parent nucleotide (GDP, ADP) [2]: 3 fold

Nc1ncnc2c1ncn2[C@@H]1O[C@H](COP(=O)(O)CP(=O)(O)OP(O)(O)=S)[C@@H](O)[C@H]1O [APCPP-γ-S, adenosine 5′-[Pγ-thio]-α,β-methylenetriphosphate]
IC50 ([3]; 48 h, read-out: concentration that maintained 50% of neuronal cells): 0.2 µM
IC50 ([3]; read-out: IC50 protection from Aβ42 insult): 0.2 µM
aggregate size after addition [4]: less than 500 nm

Nc1ncnc2c1ncn2[C@@H]1O[C@H](COP(O)(=S)OP(=O)(O)C(Cl)(Cl)P(=O)(O)O)[C@@H](O)[C@H]1O (single isomer, unassigned; isomer a) [APPCCl2P-α-S (isomer A), adenosine 5′-[Pα-thio]-β,γ-(dichloromethylene)triphosphate]
CPPD production in MVs (FTIR bands 920 and 1125 cm^−1) [5]: a decrease in production of CPPD
inhibition of NTMP hydrolysis in cartilage pieces [6]: inhibit the hydrolysis of NTMP
inhibition of NTMP hydrolysis in MVs [7]: inhibit the hydrolysis of NTMP
degradation of ATP on co-application [8]: 22%
PPi formed on co-application with ATP [9]: 0.029 µM
